Reference: article PMC7251097, “Aspartate/asparagine-β-hydroxylase: a high-throughput mass spectrometric assay for discovery of small molecule inhibitors” (Scientific Reports, 2020)
Counter-ions that a name gives are not always drawn. Like-named read-outs stand apart in the source and are kept apart here.

Target: T1, His6-AspH315–758 (human aspartate/asparagine-β-hydroxylase, AspH) (Homo sapiens, UniProt Q12797)
T1 construct: N-Terminally His6-tagged human AspH315–758 (His6-AspH315–758) was produced in E. coli BL21 (DE3) cells; made in house; host or cells: E. coli BL21 (DE3), pET-28a(+) vector
T1 sequence (Q12797 315-758): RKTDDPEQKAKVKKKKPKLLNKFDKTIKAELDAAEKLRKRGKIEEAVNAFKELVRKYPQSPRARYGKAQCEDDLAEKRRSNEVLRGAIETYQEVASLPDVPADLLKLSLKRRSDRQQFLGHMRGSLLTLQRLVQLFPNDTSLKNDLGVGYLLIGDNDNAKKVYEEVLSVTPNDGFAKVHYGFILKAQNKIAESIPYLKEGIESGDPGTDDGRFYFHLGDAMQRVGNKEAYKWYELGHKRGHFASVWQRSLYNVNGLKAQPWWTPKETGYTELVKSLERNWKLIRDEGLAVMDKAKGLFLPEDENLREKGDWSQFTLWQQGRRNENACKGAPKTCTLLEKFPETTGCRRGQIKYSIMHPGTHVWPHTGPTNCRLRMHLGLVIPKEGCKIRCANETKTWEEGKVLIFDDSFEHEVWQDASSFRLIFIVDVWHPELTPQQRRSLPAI
Test: SPE-MS AspH inhibition assay (LOPAC screen at fixed 20 μM and IC50 dose-response), hydroxylation of cyclic peptide hFX-CP101–119
Format: biochemical
Settings: for IC50: 50 nM His6-AspH315–758, 1.0 μM hFX-CP101–119, 3 μM 2OG, 2 μM Fe(II), 50 mM HEPES pH 7.5, 20 °C, mean ± SD, n = 2 (2,4-PDCA n = 10), read-out: IC50

[1] = LOPAC compound at fixed 20 uM, plate 1, normalised to DMSO and 2,4-PDCA controls
[2] = LOPAC compound at fixed 20 uM, substrate conversion, plate 1
[3] = LOPAC compound at 20uM, conversion of substrate peptide
[4] = LOPAC compound at 20uM, plate 2, conversion of substrate peptide
[5] = LOPAC compound at 20uM, plate 2, normalised to DMSO and 2,4-PDCA controls, read-out: Plate 2 (% inhibition)
[6] = LOPAC Plate 4, compound at 20 uM, substrate conversion
[7] = LOPAC Plate 4, compound at 20 uM, read-out: % inhibition

COc1ccccc1N1CCN(CCCCNC(=O)c2ccc3ccccc3c2)CC1 [BP 897]
Plate 1 (% inhibition) [1]: -9.00% | Plate 1 (% conversion) [2]: 38.89%

Cl.Clc1cc(I)cc(Cl)c1NC1=NCCN1 [p-Iodoclonidine hydrochloride]
Plate 3 (% conversion) [3]: 40.33%

O=C1Cc2c([nH]c3ccc(Br)cc23)-c2ccccc2N1 [Kenpaullone]
Plate 3 (% conversion) [3]: 35.01%

CSc1ccc2c(c1)C(N1CCN(C)CC1)Cc1ccccc1S2 (stereo not drawn) [Methiothepin mesylate]
Plate 3 (% conversion) [3]: 47.65%

Cc1cn([C@H]2C[C@H](N=[N+]=[N-])[C@@H](CO)O2)c(=O)[nH]c1=O [3-Azido-3-deoxythymidine]
Plate 1 (% inhibition) [1]: -7.24% | Plate 1 (% conversion) [2]: 38.30%

Oc1cc2c(cc1O)CN(C(=S)NCCc1ccc(Cl)cc1)CCC2 [Capsazepine, capsazepine, reference compound]
IC50: 3.41 ± 0.28 µM | inhibition at 20 µM (AspH activity, fixed compound concentration 20 μM, initial LOPAC screen, 0.5%v/v DMSO, read-out: Inhibition at 20 µM [%]): 99.7% | Plate 2 (% conversion) [4]: 2.59% | inhibition at 20 µM [5]: 99.7%

N#C/C(=C\c1ccc(O)c(O)c1)C(N)=S [Tyrphostin 47, reference compound]
% conversion: 2.14% | inhibition at 20 µM: 101% | inhibition at 20 µM (read-out: Inhibition at 20 µM [%]): 101%

CC(N)(Cc1ccc(O)cc1)C(=O)O (racemic) [DL-alpha-Methyl-p-tyrosine]
Plate 1 (% conversion): 33.46% | Plate 1 (% inhibition): 7.19%

NC(=S)c1ccc[n+]([C@@H]2O[C@@H](COP(=O)([O-])OP(=O)(O)OC[C@H]3O[C@@H](n4cnc5c(N)ncnc54)C(OP(=O)([O-])O)[C@H]3O)C(O)C2O)c1.[Na+] (stereo partly drawn) [Thio-NADP sodium]
% conversion [6]: 24.90%

C=C(c1ccc(C(=O)O)cc1)c1cc2c(cc1C)C(C)(C)CCC2(C)C [Bexarotene]
Plate 2 (% conversion) [4]: 33.95% | inhibition at 20 µM [5]: 6%

CC(CCc1ccc(O)cc1)NCCc1ccc(O)c(O)c1 (stereo not drawn) [Dobutamine hydrochloride]
Plate 2 (% conversion) [4]: 8.47% | inhibition at 20 µM [5]: 82.1%

CCCCNc1ccc(C(=O)OCCN(C)C)cc1 [Tetracaine hydrochloride]
% conversion [6]: 40.45% | inhibition at 20 µM [7]: -11.7%

COc1ccc(CN(CCN(C)C)c2ccccn2)cc1 [Pyrilamine maleate]
Plate 3 (% conversion) [3]: 36.13%

CC(=O)/C=C1\C(=O)N(C)c2ccccc21 [Supercinnamaldehyde]
Plate 1 (% inhibition) [1]: -3.46% | Plate 1 (% conversion) [2]: 37.03%

CCN(CC)CCNC(=O)c1ccc(N)cc1 [Procainamide hydrochloride]
% conversion [6]: 38.98% | inhibition at 20 µM [7]: -7.36%

CNCC(O)c1ccc(O)cc1 (racemic) [(±)-Synephrine]
% conversion: 25.88%

Cc1cccc(-c2[nH]ncc2-c2ccc3ncccc3n2)n1 [RepSox]
Plate 2 (% conversion): 40.48% | Plate 2 (% inhibition) (20 µM): -13.51%

Cl.c1ccc2sc(C3(N4CCCCC4)CCCCC3)cc2c1 [BTCP hydrochloride]
Plate 1 (% conversion): 41.13% | Plate 1 (% inhibition): -15.64%

[H]/N=C(/NC)NCCC[C@H](N)C(=O)O [NG-Monomethyl-L-arginine acetate]
Plate 3 (% conversion) [3]: 38.37%

CN1CCC[C@@H]1Cc1c[nH]c2ccc(CCS(=O)(=O)c3ccccc3)cc12 [Eletriptan]
Plate 5 (% inhibition) (plate 5 (Pfitzer), test compounds at fixed 20 μM): 0.46% | Plate 5 (% conversion) (plate 5 (Pfitzer), test compounds at fixed 20 μM, mean conversion DMSO 32.88): 36.16%

COc1ccc2[n-]c([S@@+]([O-])Cc3ncc(C)c(OC)c3C)nc2c1.COc1ccc2[n-]c([S@@+]([O-])Cc3ncc(C)c(OC)c3C)nc2c1.O.O.[Mg+2] [Esomeprazole magnesium dihydrate]
Plate 2 (% conversion) [4]: 41.52% | Plate 2 (% inhibition) (LOPAC compound at 20uM, plate 2, normalised to DMSO and 2,4-PDCA controls): -16.62%

NCCCNCCCCNCCCN [Spermine tetrahydrochloride]
% conversion [6]: 39.42% | inhibition at 20 µM [7]: -8.64%

CC(=O)N(O)CCCCCNC(=O)CCC(=O)N(O)CCCCCNC(=O)CCC(=O)N(O)CCCCCN [Deferoxamine mesylate, reference compound]
IC50: 3.16 ± 0.93 µM

N=c1ccn2c(n1)O[C@H]1[C@H](O)[C@@H](CO)O[C@H]12 [Ancitabine hydrochloride]
Plate 1 (% inhibition) [1]: -4.15%
